Literature values in patent US20080161405A1, “Biguanide Composition and Method of Treatment and Prevention of Infections” (priority 2006, published 2008).
≈ marks a conversion by molar mass, not a printed value.

Assays:
[1] = test system: acanthamoeba cysts and trophazoites
Acanthamoeba keratitis = conditions: case report, recurrence in the eye
Fusarium Keratomycosis = conditions: 0.02% solution, rabbit model
Aspergillus keratitis = conditions: 0.02%

| Compound | minimum inhibitory concentration [1] | treatment of recurrence of Acanthamoeba keratitis (Acanthamoeba keratitis) | reduction of fungal growth (Fusarium Keratomycosis) | effectiveness in experimental Aspergillus keratitis (Aspergillus keratitis) |
| --- | --- | --- | --- | --- |
| CCCCC(CC)CNC(=N)NC(=N)NCCCCCCNC(=N)NC(=N)NCC(CC)CCCC (stereo not shown) [Alexidine, 1,1′-hexamethylene-bis[5-(2-ethylhexyl)biguanide]] | 6.3 µg/mL (≈ 12.4 µM) | – | – | – |
| poly(hexamethylene biguanide) [polyhexamethylene biguanide] | – | successfully treated | effective at reducing fungal growth | moderately effective |
